Data: patent publication US12129312B2, “Peptide compound, application thereof and composition containing same” (priority 2017, dated 2024)
Numbered stars: 1 amine (or outer) side, 2 acyl side, 3 side chain; on linkers, the order of the positions; unused ones are H or OH. Square brackets hold non-standard residues; d marks the D form. Peptide text beside a SMILES is read from it. * marks the point of attachment. X7 = O=C([C@@H](Cc1ccc(O)cc1)NC(=S)NCCc1ccccc1)*; Pro(5R-Ph) = O=C(O)[C@@H]1CC[C@H](c2ccccc2)N1; dTyr(3-F) = N[C@H](Cc1ccc(O)c(F)c1)C(=O)O; Pro(4,4-F2) = O=C(O)[C@@H]1CC(F)(F)CN1; X5 = O=C([C@H]1c2ccccc2CCN1[*:1])[*:2]; 2Nal = N[C@@H](Cc1ccc2ccccc2c1)C(=O)O; Tiq1c(1S) = O=C(O)[C@H]1NCCc2ccccc21; X10 = CN(C)[C@H](Cc1ccc(O)cc1)C(=O)*; dNMeY = CN[C@H](Cc1ccc(O)cc1)C(=O)O; Cyclohexylacetyl = O=C(CC1CCCCC1)*; Hydrocinnamoyl = O=C(CCc1ccccc1)*; NMehLeu = CN[C@@H](CCC(C)C)C(=O)O; NEtLeu = CCN[C@@H](CC(C)C)C(=O)O; Tic = O=C(O)[C@@H]1Cc2ccccc2CN1; NMeL = CN[C@@H](CC(C)C)C(=O)O; X12 = O=C(Cc1cc(O)cc(O)c1)*; NMeS = CN[C@@H](CO)C(=O)O; Pip = O=C(O)[C@@H]1CCCCN1; hSer = N[C@@H](CCO)C(=O)O; Thz = O=C(O)[C@@H]1CSCN1; Hexanoyl = CCCCCC(=O)*

The molecules below were run against T1, human Chemokine like receptor 1 (Homo sapiens, UniProt Q99788) (assay: Activation of Tango CMKLR1-bla U2OS cells (beta-lactamase FRET reporter)). Details: not given.
T1 construct: host or cells: U2OS (Tango CMKLR1-bla U2OS)
T1 sequence (Q99788 1-373): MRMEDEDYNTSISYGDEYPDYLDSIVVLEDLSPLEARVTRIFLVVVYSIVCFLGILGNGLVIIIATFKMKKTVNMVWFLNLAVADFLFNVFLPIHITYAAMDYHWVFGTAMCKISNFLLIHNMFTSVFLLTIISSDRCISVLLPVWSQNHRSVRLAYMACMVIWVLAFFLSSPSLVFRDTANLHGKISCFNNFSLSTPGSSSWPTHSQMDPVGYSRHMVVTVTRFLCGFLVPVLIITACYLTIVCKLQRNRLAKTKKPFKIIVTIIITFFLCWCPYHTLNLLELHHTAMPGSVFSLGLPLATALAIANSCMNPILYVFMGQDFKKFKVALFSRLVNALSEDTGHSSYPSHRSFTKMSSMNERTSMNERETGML
Assay type: cell-based
Procedure, shortened: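 Agonist mode in Tango CMKLR1-bla U2OS cells, 10000 cells/well seeded overnight, then 10-point 3-fold compound dilutions from 10 mM DMSO stock applied for 4 h at 37 °C, 5% CO2. Beta-lactamase reporter read with CCF4-AM FRET substrate; peptide (D-Tyr)-Phe-Leu-Pro-(D-Ser)-Gln-Phe-(D-Ala)-Tic-Ser served as positive control.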

Row | Compound | EC50
1 | CC(C)CC[C@@H](C(=O)N1CCC[C@H]1C(=O)N[C@H](CO)C(=O)N[C@@H](CCC(N)=O)C(=O)N[C@@H](Cc1ccccc1)C(=O)N[C@H](C)C(=O)N1Cc2ccccc2C[C@H]1C(=O)N[C@@H](CO)C(=O)O)N(C)C(=O)[C@H](Cc1ccccc1)NC(=O)[C@H](N)Cc1ccc(O)cc1 [YW-101, (D-Tyr)-Phe-(NMe-HoLeu)-Pro-(D-Ser)-Gln-Phe-(D-Ala)-Tic-Ser-OH] (H-[dY]F[NMehLeu]P[dS]QF[dA][Tic]S-OH) | 2.9 nM

Same assay, conditions: determination by the method of Effect Embodiment 1; read-out: EC50

Row | Compound | EC50
2 | CC(C)C[C@H](NC(=O)[C@H](Cc1ccccc1)NC(=O)[C@H](N)Cc1ccc(O)cc1)C(=O)N1[C@@H](c2ccccc2)CC[C@H]1C(=O)N[C@H](CO)C(=O)N[C@@H](CCC(N)=O)C(=O)N[C@@H](Cc1ccccc1)C(=O)N[C@H](C)C(=O)N1Cc2ccccc2C[C@H]1C(=O)N[C@@H](CO)C(=O)O [YW-112, (D-Tyr)-Phe-Leu-Pro(5Ph)-(D-Ser)-Gln-Phe-(D-Ala)-Tic-Ser-OH] (H-[dY]FL[Pro(5R-Ph)][dS]QF[dA][Tic]S-OH) | 170 nM
3 | CN[C@H](Cc1ccc(O)cc1)C(=O)N[C@@H](Cc1ccccc1)C(=O)N[C@@H](CC(C)C)C(=O)N1CCC[C@H]1C(=O)N[C@H](CO)C(=O)N[C@@H](CCC(N)=O)C(=O)N[C@@H](Cc1ccccc1)C(=O)N[C@H](C)C(=O)N1CCc2ccccc2[C@@H]1C(=O)N[C@@H](CO)C(=O)O [YW-154, (D-NMe-Tyr)-Phe-Leu-Pro-(D-Ser)-Gln-Phe-(D-Ala)-D-Ti1c-Ser-OH] (H-[dNMeY]FLP[dS]QF[dA][X5]S-OH) | 34 nM
4 | CC(C)C[C@H](NC(=O)[C@H](Cc1ccccc1)NC(=O)[C@H](N)Cc1ccc(O)cc1)C(=O)N1CCC[C@H]1C(=O)N[C@H](CO)C(=O)N[C@@H](CCC(N)=O)C(=O)N[C@@H](Cc1ccccc1)C(=O)N[C@H](C)C(=O)N1CCc2ccccc2[C@H]1C(=O)N[C@@H](CO)C(=O)O [YW-150, (D-Tyr)-Phe-Leu-Pro-(D-Ser)-Gln-Phe-(D-Ala)-Ti1c-Ser-OH] (H-[dY]FLP[dS]QF[dA][Tiq1c(1S)]S-OH) | 62 nM
5 | CC(C)C[C@H](NC(=O)[C@H](Cc1ccccc1)NC(=O)[C@H](N)Cc1ccc(O)cc1)C(=O)N1CCC[C@H]1C(=O)N[C@H](CO)C(=O)N[C@@H](CCC(N)=O)C(=O)N[C@@H](Cc1ccccc1)C(=O)N[C@H](C)C(=O)N1CCCC[C@H]1C(=O)N[C@@H](CO)C(=O)O [YW-90, (D-Tyr)-Phe-Leu-Pro-(D-Ser)-Gln-Phe-(D-Ala)-HoPro-Ser-OH] (H-[dY]FLP[dS]QF[dA][Pip]S-OH) | > 50000 nM
6 | CN[C@H](Cc1ccc(O)cc1)C(=O)N[C@@H](Cc1ccccc1)C(=O)N[C@@H](CC(C)C)C(=O)N1CCC[C@H]1C(=O)N[C@H](CO)C(=O)N[C@@H](CCC(N)=O)C(=O)N[C@@H](Cc1ccccc1)C(=O)N[C@H](C)C(=O)N1Cc2ccccc2C[C@H]1C(=O)N[C@@H](CO)C(=O)O [YW-103, (D-NMe-Tyr)-Phe-Leu-Pro-(D-Ser)-Gln-Phe-(D-Ala)-Tic-Ser-OH] (H-[dNMeY]FLP[dS]QF[dA][Tic]S-OH; N-terminus assumed) | 9.4 nM
7 | CC(C)C[C@@H](C(=O)N1CCC[C@H]1C(=O)N[C@H](CO)C(=O)N[C@@H](CCC(N)=O)C(=O)N[C@@H](Cc1ccccc1)C(=O)N[C@H](C)C(=O)N1Cc2ccccc2C[C@H]1C(=O)N[C@@H](CCO)C(=O)O)N(C)C(=O)[C@H](Cc1ccccc1)NC(=O)[C@H](N)Cc1ccc(O)cc1 [YW-171, (D-Tyr)-Phe-(NMe-Leu)-Pro-(D-Ser)-Gln-Phe-(D-Ala)-Tic-HoSer-OH] (H-[dY]F[NMeL]P[dS]QF[dA][Tic][hSer]-OH) | 29 nM
8 | CCN(C(=O)[C@H](Cc1ccccc1)NC(=O)[C@@H](Cc1ccc(O)cc1)NC(=O)CCc1ccccc1)[C@@H](CC(C)C)C(=O)N1CCC[C@H]1C(=O)N[C@H](CO)C(=O)N[C@@H](CCC(N)=O)C(=O)N[C@@H](Cc1ccccc1)C(=O)N[C@H](C)C(=O)N1Cc2ccccc2C[C@H]1C(=O)N[C@@H](CO)C(=O)O [YW-185, 3-Phenylpropanoyl-(D-Tyr)-Phe-(NEt-Leu)-Pro-(D-Ser)-Gln-Phe-(D-Ala)-Tic-Ser] (Hydrocinnamoyl-[dY]F[NEtLeu]P[dS]QF[dA][Tic]S-OH) | 5.9 nM
9 | CC(C)C[C@H](NC(=O)[C@H](Cc1ccccc1)NC(=O)[C@@H](Cc1ccc(O)cc1)NC(=S)NCCc1ccccc1)C(=O)N1CCC[C@H]1C(=O)N[C@H](CO)C(=O)N[C@@H](CCC(N)=O)C(=O)N[C@@H](Cc1ccccc1)C(=O)N[C@H](C)C(=O)N1Cc2ccccc2C[C@H]1C(=O)N[C@@H](CO)C(=O)O [YW-73, Phenethylcarbamothioyl-(D-Tyr)-Phe-Leu-Pro-(D-Ser)-Gln-Phe-(D-Ala)-Tic-Ser-OH] (X7-FLP[dS]QF[dA][Tic]S-OH) | 28 nM
10 | CC(C)C[C@H](NC(=O)[C@H](Cc1ccccc1)NC(=O)[C@H](N)Cc1ccc(O)cc1)C(=O)N1CCC[C@H]1C(=O)N[C@H](CO)C(=O)N[C@@H](CCC(N)=O)C(=O)N[C@@H](Cc1ccccc1)C(=O)N[C@H](C)C(=O)N1Cc2ccccc2C[C@H]1C(=O)N(C)[C@@H](CO)C(=O)O [YW-110, (D-Tyr)-Phe-Leu-Pro-(D-Ser)-Gln-Phe-(D-Ala)-Tic-(NMe-Ser)-OH] (H-[dY]FLP[dS]QF[dA][Tic][NMeS]-OH) | 13 nM

Next, values leading:

Row | EC50 | Compound
11 | 2.9 nM | CC(C)C[C@H](NC(=O)[C@H](Cc1ccccc1)NC(=O)[C@@H](Cc1ccc(O)cc1)NC(=O)Cc1cc(O)cc(O)c1)C(=O)N1CCC[C@H]1C(=O)N[C@H](CO)C(=O)N[C@@H](CCC(N)=O)C(=O)N[C@@H](Cc1ccccc1)C(=O)N[C@H](C)C(=O)N1Cc2ccccc2C[C@H]1C(=O)N[C@@H](CO)C(=O)O [YW-131, 3,5-Dihydroxyphenylacetyl-(D-Tyr)-Phe-Leu-Pro-(D-Ser)-Gln-Phe-(D-Ala)-Tic-Ser] (X12-[dY]FLP[dS]QF[dA][Tic]S-OH)
12 | 2.6 nM | CC(C)C[C@@H](C(=O)N1CCC[C@H]1C(=O)N[C@H](CO)C(=O)N[C@@H](CCC(N)=O)C(=O)N[C@@H](Cc1ccccc1)C(=O)N[C@H](C)C(=O)N1Cc2ccccc2C[C@H]1C(=O)N[C@@H](CO)C(=O)O)N(C)C(=O)[C@H](Cc1ccccc1)NC(=O)[C@@H](Cc1ccc(O)cc1)N(C)C [YW-192, DiMe-(D-Tyr)-Phe-(NMe-Leu)-Pro-(D-Ser)-Gln-Phe-(D-Ala)-Tic-Ser] (X10-F[NMeL]P[dS]QF[dA][Tic]S-OH)
13 | 3.3 nM | CC(C)C[C@@H](C(=O)N1CC(F)(F)C[C@H]1C(=O)N[C@H](CO)C(=O)N[C@@H](CCC(N)=O)C(=O)N[C@@H](Cc1ccc2ccccc2c1)C(=O)N[C@H](C)C(=O)N1Cc2ccccc2C[C@H]1C(=O)N(C)[C@@H](CO)C(=O)O)N(C)C(=O)[C@H](Cc1ccccc1)NC(=O)[C@H](N)Cc1ccc(O)c(F)c1 [YW-226, (D-Tyr(3F))-Phe-(NMe-Leu)-(DiFluorPro)-(D-Ser)-Gln-(Nal-2)-(D-Ala)-Tic-(NMe-Ser)] (H-[dTyr(3-F)]F[NMeL][Pro(4,4-F2)][dS]Q[2Nal][dA][Tic][NMeS]-OH)
14 | 1.2 nM | CC(C)C[C@@H](C(=O)N1CCC[C@H]1C(=O)N[C@H](CO)C(=O)N[C@@H](CCC(N)=O)C(=O)N[C@@H](Cc1ccccc1)C(=O)N[C@H](C)C(=O)N1Cc2ccccc2C[C@H]1C(=O)N[C@@H](CO)C(=O)O)N(C)C(=O)[C@H](Cc1ccccc1)NC(=O)[C@@H](Cc1ccc(O)cc1)NC(=O)CC1CCCCC1 [YW-194, (2-Cyclohexylacetyl)-(D-Tyr)-Phe-(NMe-Leu)-Pro-(D-Ser)-Gln-Phe-(D-Ala)-Tic-Ser] (Cyclohexylacetyl-[dY]F[NMeL]P[dS]QF[dA][Tic]S-OH)
15 | 1.4 nM | CCCCCC(=O)N[C@H](Cc1ccc(O)cc1)C(=O)N[C@@H](Cc1ccccc1)C(=O)N(C)[C@@H](CC(C)C)C(=O)N1CCC[C@H]1C(=O)N[C@H](CO)C(=O)N[C@@H](CCC(N)=O)C(=O)N[C@@H](Cc1ccccc1)C(=O)N[C@H](C)C(=O)N1Cc2ccccc2C[C@H]1C(=O)N[C@@H](CO)C(=O)O [YW-193, Hexanoyl-(D-Tyr)-Phe-(NMe-Leu)-Pro-(D-Ser)-Gln-Phe-(D-Ala)-Tic-Ser] (Hexanoyl-[dY]F[NMeL]P[dS]QF[dA][Tic]S-OH)
16 | 0.7 nM | CC(C)C[C@@H](C(=O)N1CSC[C@H]1C(=O)N[C@H](CO)C(=O)N[C@@H](CCC(N)=O)C(=O)N[C@@H](Cc1ccccc1)C(=O)N[C@H](C)C(=O)N1Cc2ccccc2C[C@H]1C(=O)N[C@@H](CO)C(=O)O)N(C)C(=O)[C@H](Cc1ccccc1)NC(=O)[C@H](N)Cc1ccc(O)cc1 [YW-121, (D-Tyr)-Phe-(NMe-Leu)-Thz-(D-Ser)-Gln-Phe-(D-Ala)-Tic-Ser-OH] (H-[dY]F[NMeL][Thz][dS]QF[dA][Tic]S-OH)
17 | 3 nM | CC(C)C[C@@H](C(=O)N1CCC[C@H]1C(=O)N[C@H](CO)C(=O)N[C@@H](CCC(N)=O)C(=O)N[C@@H](Cc1ccccc1)C(=O)N[C@H](C)C(=O)N1Cc2ccccc2C[C@H]1C(=O)N[C@@H](CO)C(=O)O)N(C)C(=O)[C@H](Cc1ccccc1)NC(=O)[C@H](N)Cc1ccc(O)cc1 [YW-98, (D-Tyr)-Phe-(NMe-Leu)-Pro-(D-Ser)-Gln-Phe-(D-Ala)-Tic-Ser-OH] (H-[dY]F[NMeL]P[dS]QF[dA][Tic]S-OH)
18 | 0.5 nM | CN[C@H](Cc1ccc(O)cc1)C(=O)N[C@@H](Cc1ccccc1)C(=O)N(C)[C@@H](CC(C)C)C(=O)N1CSC[C@H]1C(=O)N[C@H](CO)C(=O)N[C@@H](CCC(N)=O)C(=O)N[C@@H](Cc1ccc2ccccc2c1)C(=O)N[C@H](C)C(=O)N1Cc2ccccc2C[C@H]1C(=O)N[C@@H](CO)C(=O)O [YW-148, (D-NMe-Tyr)-Phe-(NMe-Leu)-Thz-(D-Ser)-Gln-2Nal-(D-Ala)-Tic-Ser-OH] (H-[dNMeY]F[NMeL][Thz][dS]Q[2Nal][dA][Tic]S-OH)
